Literature values, collected in US20110218104A1, “Biodiesel Solvents in Pesticide Compositions” (AUBURN UNIVERSITY, priority 2010, published 2011).

Details: Merck Index, 1989

NC(N)=O [urea]
solubility in glycerin: considerable solubility
